How the values were obtained:
Type in all cases: physicochemical
[1] = Hygroscopicity study by dynamic vapor sorption (DVS)
Protocol: In the present application, dynamic vapor sorption (DVS) analysis is performed under the following conditions: instrument: SMS DVS Advantage-1; equilibration: dm/dt=0.01%/min (shortest: 60 min, longest: 180 min); drying: drying at 0% RH for 120 min; RH (%) test gradient: 10%; range of RH (%) test gradient: 0%-90%-0%.
The evaluation of hygroscopicity was classified as follows:
Dynamic Vapor Sorption Apparatus SMS DVS Advantage-1
10-15 mg of the crystalline form A of the compound of formula (I) was placed in a DVS sample tray and tested.

[2] = Stability test of crystalline form A in different solvents (XRPD); conditions: methanol, ethanol, acetone, acetonitrile, tetrahydrofuran, methyl tert-butyl ether, ethyl acetate, water, acetonitrile or acetone with water
Protocol: 50-mg portions of the crystalline form A of the compound of formula (I) were weighed into different 2.0 mL glass vials, and appropriate amounts of single or mixed solvents in the table below were added. After the addition of magnetic stir bars, the samples were stirred on a magnetic stirrer (25° C./50° C., 700 rpm) in the dark. The 25° C. samples were stirred for 1 week and centrifuged, and the resulting solid samples were dried in a vacuum oven at 40° C. overnight. The 50° C. samples were stirred for 2 days and centrifuged in a centrifuge tube with a filter membrane, and the solvent in the lower layer was discarded. The samples were let stand in a fume hood for 1 h so that they were air-dried. The resulting dried samples were subjected to XRPD analysis to determine their crystalline forms.

[3] = Solid stability test at high temperature, at high humidity, and in intense light
Protocol: According to the “Guidelines for the Stability Test of APIs and Preparations” (General Principles 9001 of the Four Parts of the Chinese Pharmacopoeia, 2020 Edition), the stability of the crystalline form A of the compound of formula (I) was investigated at high temperature (60° C., open), at high humidity (room temperature/relative humidity at 92.5%, open), and in intense light (5000±500 Lux, 90 μw/cm^2, open).
1.5 g of the crystalline form A of the compound of formula (I) was weighed into an open measuring flask and spread out to form a thin layer. The sample for high temperature test was placed in an electrothermal drying oven and investigated, and the sample for high humidity test was placed in an integrated drug stability test chamber and investigated. Samples were taken on days 5, 10 and 30 for analysis, and the results were compared with the preliminary results of day 0. The sample for intense light test was placed in an open flask. Samples were taken on days 5 and 10 for analysis, and the results were compared with the preliminary results of day 0.

[4] = Solid stability test under accelerated conditions (40° C./relative humidity at 75%, sealed)
Protocol: According to the “Guidelines for the Stability Test of APIs and Preparations” (General Principles 9001 of the Four Parts of the Chinese Pharmacopoeia, 2020 Edition), the stability of the crystalline form A of the compound of formula (I) was investigated under accelerated conditions at high temperature and high humidity (40° C./relative humidity at 75%, sealed).
(§1) 1.5 g of the crystalline form A of the compound of formula (I) was weighed into a double-layer low-density polyethylene bag. Each layer a the low-density polyethylene bag was sealed with a binding tie, and the bag was put into an aluminum foil bag. Samples were taken in months 1, 2, 3 and 6 for analysis, and the results were compared with the preliminary results of day 0. This experiment was repeated twice, each with a different batch of the crystalline form A of the compound of formula (I).

[5] = Solid stability test under long-term conditions (25° C./relative humidity at 60%, sealed)
Protocol: According to the “Guidelines for the Stability Test of APIs and Preparations” (General Principles 9001 of the Four Parts of the Chinese Pharmacopoeia, 2020 Edition), the stability of the crystalline form A of the compound of formula (I) was investigated under long-terns conditions (25° C./relative humidity at 60%, sealed).
as §1, with “layer of” for “layer a”, “foil hag.” for “foil bag.”, “months” for “months 1, 2,”

[6] = High humidity (room temperature/relative humidity 92.5%, open), Day 5
[7] = High humidity (room temperature/relative humidity 92.5%, open), Day 10
[8] = High humidity (room temperature/relative humidity 92.5%, open), Day 30
[9] = High temperature (60° C., open), Day 5
[10] = High temperature (60° C., open), Day 10
[11] = High temperature (60° C., open), Day 30
[12] = Intense light (5000 ± 500 Lux, 90 μw/cm^2, open), Day 5
[13] = Intense light (5000 ± 500 Lux, 90 μw/cm^2, open), Day 10
[14] = Batch 1, 40° C./relative humidity at 75%, sealed, Month 1
[15] = Batch 1, 40° C./relative humidity at 75%, sealed, Month 2
[16] = Batch 1, 40° C./relative humidity at 75%, sealed, Month 3
[17] = Batch 1, 40° C./relative humidity at 75%, sealed, Month 6
[18] = Batch 2, 40° C./relative humidity at 75%, sealed, Month 1
[19] = Batch 2, 40° C./relative humidity at 75%, sealed, Month 2
[20] = Batch 2, 40° C./relative humidity at 75%, sealed, Month 3
[21] = Batch 2, 40° C./relative humidity at 75%, sealed, Month 6
[22] = Batch 1, 25° C./relative humidity at 60%, sealed, Month 3
[23] = Batch 1, 25° C./relative humidity at 60%, sealed, Month 6
[24] = Batch 2, 25° C./relative humidity at 60%, sealed, Month 3
[25] = Batch 2, 25° C./relative humidity at 60%, sealed, Month 6

O=C1CCC(c2noc3ccc4[nH]ccc4c23)C(=O)N1 (stereo not drawn)
White powder: Appearance ([4]; Batch 2, Day 0) | Appearance [5, 24] | Appearance [5, 25] | Appearance ([5]; Batch 2, Day 0)
0.05%: Total impurities [4, 14] | Total impurities [4, 18]
99.9%: Content [3, 9]
100.1%: Content [4, 14]
remained unchanged: crystalline form after DVS test ([1]; after DVS)
100.4%: Content [3, 8] | Content [4, 15] | Content [4, 16] | Content [5, 24] | Content [5, 25]
98.1%: Content [4, 17]
100.0%: Content [3, 13] | Content [4, 18]
99.8%: Content [5, 22]
<0.05%: Total impurities ([3]; Day 0) | Total impurities [3, 6] | Total impurities [3, 7] | Total impurities [3, 8] | Total impurities [3, 9] | Total impurities [3, 10] | Total impurities [3, 11] | Total impurities [3, 12] | Total impurities [3, 13] | Total impurities [4, 15] | Total impurities [4, 16] | Total impurities [4, 17] | Total impurities ([4]; Batch 1, Day 0) | Total impurities [4, 19] | Total impurities [4, 20] | Total impurities [4, 21] | Total impurities ([4]; Batch 2, Day 0) | Total impurities [5, 22] | Total impurities [5, 23] | Total impurities ([5]; Batch 1, Day 0) | Total impurities [5, 24] | Total impurities [5, 25] | Total impurities ([5]; Batch 2, Day 0)
100.2%: Content [3, 7] | Content [3, 10] | Content [3, 11] | Content [4, 19] | Content [4, 20] | Content ([4]; Batch 2, Day 0) | Content ([5]; Batch 2, Day 0)
no or almost no hygroscopicity: hygroscopicity classification ([1]; 25° C., 80% RH, DVS)
99.2%: Content [4, 21] | Content [5, 23]
100.7%: Content [3, 6] | Content [3, 12]
98.9%: Content ([3]; Day 0) | Content ([4]; Batch 1, Day 0) | Content ([5]; Batch 1, Day 0)
good stability: stability in solvents (conclusion) [2] | solid stability (conclusion) ([3]; at high temperature, at high humidity, and in intense light) | solid stability (conclusion) ([4]; accelerated conditions at 40° C. with relative humidity at 75%) | solid stability (conclusion) ([5]; long-term conditions at 25° C. with relative humidity at 60%)

— patent US20230123104A1, “CRYSTAL OF TRICYCLIC COMPOUND ACTING ON CRBN PROTEIN AND PREPARATION METHOD THEREFOR” (CHIA TAI TIANQING PHARMACEUTICAL GROUP CO., LTD., priority 2020, published 2023)
